Results on twelve compounds are retold here after paper PMC6545544 (ACS Omega, 2019).

Some results are limits rather than exact numbers.

Test [1] deals with HIV-1 protease with G48V. The conditions noted are these: thermodynamic integration and MM-PBSA; cited from earlier work.
Test [2] deals with PR^S17. The note with it: PR^S17, flap twisting by G48V implicated; cited from earlier work.
Test [3] has as its system PR with 22 mutations in addition to inactivating D25N mutation. The note with it: PR with 22 mutations in addition to D25N; cited from earlier work.
Test [4] addresses PR with M46L. The note with it: cited from earlier work.
Test [5] concerns the target PR with G48V. The conditions noted are these: cited from earlier work.
Test [6] addresses PR with I54V. The note with it: cited from earlier work.
Test [7] has as its system PR bearing the single V82A mutation. The note with it: kinetic studies; cited from earlier work.
Test [8] deals with PR^S17. The note with it: PR^S17, predicted from genotype–phenotype data; cited from earlier work.
The subject of test [9] is HIV-1 protease with G48V. The note with it: flap mutation G48V; cited from earlier work.
The target in test [10] is PR^S17 (HIV-1 protease variant with 17 mutations). Nature of the test: Kinetic inhibition of PR^S17. The conditions noted are these: PR^S17 compared to PR. Format: biochemical.
The target of test [11] is PR (wild-type HIV-1 protease). The note with it: read-out: Inhibition constant (Ki), determined previously; cited from earlier work.
Test [12] concerns the target PR^V82A. The note with it: read-out: Inhibition constant (Ki), determined previously; cited from earlier work.
The target in test [13] is HIV-1 protease variant PR^S17 (HIV-1). In words: enzyme inhibition kinetics.

With `CC(C)CN(C[C@@H](O)[C@H](Cc1ccccc1)NC(=O)O[C@H]1CCOC1)S(=O)(=O)c1ccc(N)cc1` [APV, amprenavir], the “effect of G48V on van der Waals interactions” value in test [1] is reported as “strengthens van der Waals interactions”.
For the compound `CC(C)CN(C[C@@H](O)[C@H](Cc1ccccc1)NC(=O)O[C@H]1CO[C@H]2OCC[C@H]21)S(=O)(=O)c1ccc(N)cc1` [DRV, darunavir], the “cross-resistance of PR^S17” value in test [2] was “cross-resistance”. Further, the “resistance (fold)” value in test [3] is reported as above 175 fold. Further, the “inhibition constant (Ki) relative to wild-type PR” value in [4], in test [5] and in test [6] was “worse inhibition constants” each time. Further, in [7], the “affinity of PR with V82A for inhibitor” value is listed as “significantly worse affinity”.
On to `COC(=O)N[C@H](C(=O)N[C@@H](Cc1ccccc1)[C@@H](O)CN(Cc1ccc(-c2ccccn2)cc1)NC(=O)[C@@H](NC(=O)OC)C(C)(C)C)C(C)(C)C` [atazanavir], for which the predicted resistance result in [8] is “high-level resistance”.
For the compound `CC(C)(C)NC(=O)[C@@H]1CN(Cc2cccnc2)CCN1C[C@@H](O)C[C@@H](Cc1ccccc1)C(=O)N[C@H]1c2ccccc2C[C@H]1O` [indinavir], the predicted resistance result in test [8] is given as “high-level resistance”. In addition, the “affinity of PR with V82A for inhibitor” value in test [7] is reported as “significantly worse affinity”.
As to `Cc1cccc(C)c1OCC(=O)N[C@@H](Cc1ccccc1)[C@@H](O)C[C@H](Cc1ccccc1)NC(=O)[C@H](C(C)C)N1CCCNC1=O` [lopinavir], in test [8], the predicted resistance entry was “high-level resistance”.
For the compound `Cc1c(O)cccc1C(=O)N[C@@H](CSc1ccccc1)[C@H](O)CN1C[C@H]2CCCC[C@H]2C[C@H]1C(=O)NC(C)(C)C` [nelfinavir], the predicted resistance entry in [8] is “high-level resistance”. Also, the “affinity of PR with V82A for inhibitor” value in test [7] was “significantly worse affinity”.
`CC(C)c1nc(CN(C)C(=O)N[C@H](C(=O)N[C@@H](Cc2ccccc2)C[C@H](O)[C@H](Cc2ccccc2)NC(=O)OCc2cncs2)C(C)C)cs1` [ritonavir]: the predicted resistance entry in [8] is given as “high-level resistance”. Also, the “affinity of PR with V82A for inhibitor” value in test [7] was “significantly worse affinity”.
Regarding `CC(C)(C)NC(=O)[C@@H]1C[C@@H]2CCCC[C@@H]2CN1C[C@@H](O)[C@H](Cc1ccccc1)NC(=O)[C@H](CC(N)=O)NC(=O)c1ccc2ccccc2n1` [saquinavir], the predicted resistance result in [8] was “high-level resistance”. The “inhibition constant (Ki) relative to wild-type PR” value in test [4], in test [5] and in test [6] was “worse inhibition constants” in each case. Besides, the “resistance conferred by G48V” value in [9] is reported as “high level of resistance”.
For Ace-T-I-Nle-r-Nle-Q-R [p2-NC], the “Ki relative to the wild-type PR (fold better inhibition)” value in [10] turned out to be 4.2. Moreover, the Ki in test [11] was 2.17 µM; in [12] it was 0.53 µM.
In the case of R-V-L-r-F-E-A-Nle [CA-p2], the Ki in [11] is 0.075 µM; in test [12], 0.024 µM.
“substrate analogue CA-p2 (R-V-L-r-F-E-A-Nle) (peptide)”: the Ki in test [13] turned out to be 0.022 µM.
The same measure, in the same setting: next, “substrate analogue p2-NC (Ace-T-I-Nle-r-Nle-Q-R) (peptide)”: 0.514 µM.
